According to the NIST ThermoML archive (doi:10.1021/je3013205):
± gives the expanded uncertainty stated by the source.

Conditions: 101 kPa, Liquid, Vibrating tube method

| SMILES | mass density (283.15 K) [kg/m3] | mass density (293.15 K) [kg/m3] | mass density (303.15 K) [kg/m3] | mass density (313.15 K) [kg/m3] | mass density (323.15 K) [kg/m3] | mass density (333.15 K) [kg/m3] | mass density (343.15 K) [kg/m3] |
| --- | --- | --- | --- | --- | --- | --- | --- |
| NCCOCCO [2-(2-aminoethoxy)ethanol] | 1063.9 ± 0.97 | 1055.86 ± 0.95 | 1047.8 ± 0.94 | 1039.73 ± 0.92 | 1031.63 ± 0.9 | 1023.46 ± 0.89 | 1015.24 ± 0.87 |
| OCCO [1,2-ethanediol] | 1119.29 ± 0.33 | 1112.37 ± 0.32 | 1105.39 ± 0.31 | 1098.34 ± 0.31 | 1091.21 ± 0.3 | 1083.99 ± 0.3 | 1076.65 ± 0.29 |

More lines, now with the values ahead:

| mass density (283.15 K) [kg/m3] | mass density (293.15 K) [kg/m3] | mass density (303.15 K) [kg/m3] | mass density (313.15 K) [kg/m3] | mass density (323.15 K) [kg/m3] | mass density (333.15 K) [kg/m3] | mass density (343.15 K) [kg/m3] | SMILES |
| --- | --- | --- | --- | --- | --- | --- | --- |
| 794.005 ± 0.12 | 785.764 ± 0.13 | 777.284 ± 0.13 | 768.476 ± 0.13 | 759.309 ± 0.14 | 749.679 ± 0.14 | 739.528 ± 0.14 | CC(C)O [propan-2-ol] |
| 801.254 ± 0.14 | 791.866 ± 0.14 | 782.43 ± 0.15 | 772.902 ± 0.15 | 763.244 ± 0.15 | 753.389 ± 0.16 | – | CO [methanol] |
| 1024.11 ± 0.25 | 1016.23 ± 0.24 | 1008.32 ± 0.24 | 1000.37 ± 0.23 | 992.364 ± 0.23 | 984.301 ± 0.23 | 976.153 ± 0.23 | NCCO [2-aminoethan-1-ol] |
